{"source": "patent US5244916A", "about": "“Inhibition of respiratory burst using posttranslational modification inhibitors” (The Scripps Research Institute, priority 1992, dated 1993)", "key": {"[1]": {"test_system": "HL-60 cells (NADPH oxidase / respiratory burst)", "test": "Prevention of compactin-inhibition of FMLP-stimulated O2- formation in HL-60 cells by mevalonic acid and other supplements", "assay_type": "cell-based", "details": "for block in NADPH oxidase activity / cellular responsiveness after supplementation: compactin-treated HL-60 cells, exogenous supplement", "procedure": "(§1) HL-60 cells were maintained in stationary culture in RPMI 1640 medium (Gibco, Grand Island, NY) containing 10% fetal bovine serum at 37° C in an atmosphere of 95 air and 5% CO2. The cells (about 8×10^5 /ml) were differentiated into neutrophil-like cells by treatment with 1.3% DMSO for six days (Harris, et al., J. Leukocyte Biol. 37: 407-422 (1985)). The cells were treated with the indicated levels of compactin or lovastatin by addition of a 1,000-fold concentrated stock solution to the appropriate concentration on day 4 of differentiation. […] In studies of the protective effect of mevalonic acid, the compound was added as the mevalonolactone (Sigma Chemical Co., St. Louis, MO) at a concentration of 1 mM to the cell culture on days 4 to 6. Similarly, cholesterol was added in the form of LDL prepared according to the method of Curtiss and Edgington (Curtiss, et al., J. Biol. Chem. 257: 15213-15221 (1991)) at a final concentration of 50 μg/ml; ubiquinone (Sigma Chemical Co., St. Louis, MO) was added as Coenzyme Q-10 at a final concentration of 0.5 mM; and dolichol (Sigma Chemical Co., St. Louis, MO) was added as a dispersion in phosphatidylcholine at a final concentration of 0.5 mM (Cutts, et al., J. Cell Physiol. 139: 550-555 (1989)).\nO2 --formation by HL-60 cells was assessed by the SOD-sensitive reduction of cytochrome c. Cells were suspended at 1×10^7 /ml in Krebs-Ringer Hepes buffer with 5.5 mM glucose (KRHG) and 50-100μl of cells were added to a cuvette containing 100 μM cytochrome c (type III, Sigma Chemical Co., St. Louis, MO), ±300 μg/ml SOD (Sigma Chemical Co., St. Louis, MO) in 700-750 μl KRHG. Cytochalasin b (Sigma Chemical Co., St. Louis, MO) was added to a final concentration of 5 μg/ml, and the cells were incubated at 37° C. for five minutes while a stable baseline at a wavelength of 550 nm was obtained. O2 --formation was initiated by the addition of 1 μM N-formylmethionylleucylphenylalanine (FMLP; Sigma Chemical Co., St. Louis, MO) or 1μg/ml phorbol myristate acetate (PMA; Sigma Chemical Co., St. Louis, MO). Cytochrome c reduction at 550nm was continuously monitored and maximal rate and extent of the reaction calculated.\nInhibition of protein isoprenylation can interfere with LMWG function without inhibiting overall cellular function (Maltese, supra (1990)). Since compactin inhibits at the enzymatic step preceding mevalonic acid synthesis, one should be able to reverse effects of compactin due specifically to inhibition of this pathway by addition of exogenous mevalonic acid."}, "HL-60 cells": {"test_system": "HL-60 cells", "test": "HL-60 cell viability by propidium iodide uptake (flow cytometry)", "procedure": "as §1, with “The cells were treated with the indicated levels of compactin or lovastatin by addition of a 1,000-fold concentrated stock solution to the appropriate concentration on day 4 of differentiation.” left out\nCell viability was determined by uptake of propidium iodide (537-059; Calbiochem-Behring Corp., La Jolla, CA), detected from the emission fluorescence at 625/35 nm using a DM560 dichronic mirror (Krishan, J. Cell. Biol. 66: 188-192 (1975)). Expression of N-formyl peptide receptor was determined using fluorescein-labeled N-CHONle-Leu-Phe-Nle-Tyr-Lys (Molecular Probes, Inc., Eugene, OR) essentially by the method of Sklar and Finney (Sklar and Finney, Cytometry 3: 161-165 (1982)). Specificity of ligand binding was determined in the presence of 4 mM unlabeled T-boc peptide. CD14 expression was determined using monoclonal antibody 3C10 at a dilution of 1:1,000 (see Goyert and Ferrero, in Leucocyte Typing III: White Cell Differentiation Antigens, McMichael, ed., Oxford Univ. Press, NY, pp. 613-619 (1988)), with detection using a fluorescein-labeled secondary antibody. Flow cytometric analyses were performed on a FACSIV (registered trademark of Becton-Dickinson, San Jose, CA) equipped with a 2W argon laser (Coherent Inc., Palo Alto, collected in list mode and analyzed using the Consort 30 program (Becton-Dickinson, San Jose, CA) after collecting 10,000 events."}, "[2]": {"test_system": "NADPH oxidase in HL-60 cells", "test": "Inhibition of NADPH oxidase activation / O2- generation in HL-60 cells (stimulus not singled out)", "assay_type": "cell-based", "procedure": "as §1, with “(1989)). O2 --formation by HL-60 cells was assessed by the SOD-sensitive reduction of cytochrome c. Cells were suspended at 1×10^7 /ml in Krebs-Ringer Hepes buffer with 5.5 mM glucose (KRHG) and 50-100μl of cells were added to a cuvette containing 100 μM cytochrome c (type III, Sigma Chemical Co., St. Louis, MO), ±300 μg/ml SOD (Sigma Chemical Co., St. Louis, MO) in 700-750 μl KRHG. Cytochalasin b (Sigma Chemical Co., St. Louis, MO) was added to a final concentration of 5 μg/ml, and the cells were incubated at 37° C. for five minutes while a stable baseline at a wavelength of 550 nm was obtained. O2 --formation was initiated by the addition of 1 μM N-formylmethionylleucylphenylalanine (FMLP; Sigma Chemical Co., St. Louis, MO) or 1μg/ml phorbol myristate acetate (PMA; Sigma Chemical Co., St. Louis, MO). Cytochrome c reduction at 550nm was continuously monitored and maximal rate and extent of the reaction calculated.” for “(1989)).”"}}, "data": [{"compound": "CC(C)CCC[C@@H](C)[C@H]1CC[C@H]2[C@@H]3CC=C4C[C@@H](O)CC[C@]4(C)[C@H]3CC[C@]12C", "note": "[cholesterol]", "values": [{"measurement": "effect on compactin blockade of oxidase activity", "setting": "[1]; 50 μg/ml LDL cholesterol", "value": "no effect"}, {"measurement": "FMLP-stimulated O2- formation, Extent", "setting": "[1]; 50 μg/ml cholesterol, no compactin, n = 2", "value": "99 % of control"}, {"measurement": "FMLP-stimulated O2- formation, Rate", "setting": "[1]; 50 μg/μl cholesterol, no compactin, n = 2", "value": "90 % of control"}, {"measurement": "block in NADPH oxidase activity / cellular responsiveness after supplementation", "setting": "[1]", "value": "apparently not overcome"}]}, {"compound": "CC[C@H](C)C(=O)O[C@H]1C[C@@H](C)C=C2C=C[C@H](C)[C@H](CC[C@@H]3C[C@@H](O)CC(=O)O3)[C@H]21", "note": "[lovastatin]", "values": [{"measurement": "cell viability when inhibitor added at day 1 of differentiation", "setting": "HL-60 cells", "value": "somewhat decreased"}, {"measurement": "inhibition of NADPH oxidase activation, effective concentrations", "setting": "[2]", "value": "micromolar concentrations"}, {"measurement": "ability of HL-60 cells to generate O2-", "setting": "[2]; response to receptor stimuli and downstream activators", "value": "markedly inhibited"}]}, {"compound": "C[C@@](O)(CCO)CC(=O)O", "note": "[mevalonic acid]", "values": [{"measurement": "FMLP-stimulated O2- formation, Extent", "setting": "[1]; 1 mM mevalonate, no compactin", "value": "111 ± 8.0 % of control"}, {"measurement": "FMLP-stimulated O2- formation, Rate", "setting": "[1]; 1 mM mevalonate, no compactin", "value": "120 ± 10 % of control"}, {"measurement": "reversal of compactin inhibition of O2- formation", "setting": "[1]; 1 mM mevalonic acid (as mevalonolactone), 4 or 10 μM compactin", "value": "nearly completely reversed"}, {"measurement": "block in NADPH oxidase activity / cellular responsiveness after supplementation", "setting": "[1]", "value": "totally restored"}, {"measurement": "effect on control rate or extent of O2- formation", "setting": "[1]; no compactin", "value": "no consistent effect"}]}, {"compound": "COC1=C(OC)C(=O)C(C/C=C(\\C)CC/C=C(\\C)CC/C=C(\\C)CC/C=C(\\C)CC/C=C(\\C)CC/C=C(\\C)CC/C=C(\\C)CC/C=C(\\C)CC/C=C(\\C)CCC=C(C)C)=C(C)C1=O", "note": "[ubiquinone]", "values": [{"measurement": "effect on compactin blockade of oxidase activity", "setting": "[1]; 0.5 mM ubiquinone", "value": "no effect"}, {"measurement": "block in NADPH oxidase activity / cellular responsiveness after supplementation", "setting": "[1]", "value": "apparently not overcome"}]}, {"compound": "dolichol", "values": [{"measurement": "effect on compactin blockade of oxidase activity", "setting": "[1]; 0.5 mM dolichol", "value": "no effect"}, {"measurement": "block in NADPH oxidase activity / cellular responsiveness after supplementation", "setting": "[1]", "value": "apparently not overcome"}]}]}
